Read-outs that look alike come from different tables or passages of the source.
What was measured:
[1] = tested on: MDA-MB-436 (a BRCA-1-mutated breast cancer cell line); test: Cell proliferation assay, three-day, CellTiter-Glo, MDA-MB-436; assay type: cell-based; conditions: for inhibition at 0.00508 µM / inhibition at 0.0152 µM / inhibition at 0.0457 µM / inhibition at 0.41 µM / inhibition at 1.23 µM / inhibition at 3.7 µM / inhibition at 11.11 µM / inhibition at 33.33 µM / inhibition at 100 µM / IC50: Homo sapiens; for inhibition at 0.00508 µM: MDA-MB-436, MDA-MB-436, Conc. 0.00508 uM; for inhibition at 0.0152 µM: MDA-MB-436, MDA-MB-436, Conc. 0.0152 uM; for inhibition at 0.0457 µM: MDA-MB-436, MDA-MB-436, Conc. 0.0457 uM; for inhibition at 0.41 µM: MDA-MB-436, MDA-MB-436, Conc. 0.41 uM; for inhibition at 1.23 µM: MDA-MB-436, MDA-MB-436, Conc. 1.23 uM; for inhibition at 3.7 µM: MDA-MB-436, MDA-MB-436, Conc. 3.70 uM; for inhibition at 11.11 µM: MDA-MB-436, MDA-MB-436, Conc. 11.11 uM; for inhibition at 33.33 µM: MDA-MB-436, MDA-MB-436, Conc. 33.33 uM; for inhibition at 100 µM: MDA-MB-436, MDA-MB-436, Conc. 100.00 uM
Procedure, shortened: (§1)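 Cells seeded overnight in 384-well plates, then exposed to compounds (DMSO stock diluted in medium) for 72 h at 37 °C, 5% CO2. Viability read as CellTiter-Glo luminescence after 60 min at room temperature.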

[2] = tested on: CAPAN-1 (a BRCA-2-mutated pancreatic cancer cell line); test: Cell proliferation assay, three-day, CellTiter-Glo, CAPAN-1; assay type: cell-based; conditions: for IC50 / inhibition at 0.00508 µM / inhibition at 0.0152 µM / inhibition at 0.0457 µM / inhibition at […] / inhibition at 0.41 µM / inhibition at 1.23 µM / inhibition at 3.7 µM / inhibition at 11.11 µM / inhibition at 33.33 µM / inhibition at 100 µM: Homo sapiens; for inhibition at 0.00508 µM: CAPAN-1, 0.00508 uM; for inhibition at 0.0152 µM: CAPAN-1, 0.0152 uM; for inhibition at 0.0457 µM: CAPAN-1, 0.0457 uM; for inhibition at […]: CAPAN-1, 0.14 uM; for inhibition at 0.41 µM: CAPAN-1, 0.41 uM; for inhibition at 1.23 µM: CAPAN-1, 1.23 uM; for inhibition at 3.7 µM: CAPAN-1, 3.70 uM; for inhibition at 11.11 µM: CAPAN-1, 11.11 uM; for inhibition at 33.33 µM: CAPAN-1, 33.33 uM; for inhibition at 100 µM: CAPAN-1, 100.00 uM
Procedure, shortened: as §1

PARP-1 = target: T1, PARP-1 (Homo sapiens, UniProt P09874); test: PARP-1 inhibition assay (PARP-1 Chemiluminescent Assay Kit, BPS Bioscience); assay type: biochemical; conditions: for inhibition at 0.01 µM: 10 nM compound
T1 construct: purchased BPS Bioscience 80569
T1 sequence (P09874 whole entry): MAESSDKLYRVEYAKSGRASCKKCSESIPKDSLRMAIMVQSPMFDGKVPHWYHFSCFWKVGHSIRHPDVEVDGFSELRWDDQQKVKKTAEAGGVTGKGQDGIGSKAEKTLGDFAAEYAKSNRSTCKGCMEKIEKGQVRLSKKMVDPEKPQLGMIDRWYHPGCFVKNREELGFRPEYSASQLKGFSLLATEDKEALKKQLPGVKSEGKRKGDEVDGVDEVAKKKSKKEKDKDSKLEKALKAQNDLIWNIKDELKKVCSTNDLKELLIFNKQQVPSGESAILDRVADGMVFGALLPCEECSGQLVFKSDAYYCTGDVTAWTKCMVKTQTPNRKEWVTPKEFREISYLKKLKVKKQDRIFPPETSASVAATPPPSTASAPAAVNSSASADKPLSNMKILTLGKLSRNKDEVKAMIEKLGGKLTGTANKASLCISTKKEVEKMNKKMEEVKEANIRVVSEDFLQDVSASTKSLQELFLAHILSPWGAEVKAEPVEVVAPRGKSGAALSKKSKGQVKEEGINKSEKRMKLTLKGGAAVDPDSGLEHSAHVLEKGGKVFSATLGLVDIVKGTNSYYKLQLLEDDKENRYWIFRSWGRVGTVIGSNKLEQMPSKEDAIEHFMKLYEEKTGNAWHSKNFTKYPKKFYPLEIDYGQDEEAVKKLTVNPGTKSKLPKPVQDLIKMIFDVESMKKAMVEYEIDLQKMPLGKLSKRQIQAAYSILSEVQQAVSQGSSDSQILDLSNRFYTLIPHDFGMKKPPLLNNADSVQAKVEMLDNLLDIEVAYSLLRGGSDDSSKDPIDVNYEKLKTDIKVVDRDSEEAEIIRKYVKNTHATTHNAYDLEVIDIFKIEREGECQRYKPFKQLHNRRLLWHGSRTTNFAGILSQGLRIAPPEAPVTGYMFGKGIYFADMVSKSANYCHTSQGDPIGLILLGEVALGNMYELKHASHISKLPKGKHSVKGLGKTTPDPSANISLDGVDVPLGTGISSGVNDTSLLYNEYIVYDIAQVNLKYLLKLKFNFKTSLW
Method: (§2) The PARP-1 and PARP-2 inhibition assays were performed in outsourcing, by a CRO company, Shanghai Medicilon Inc. (Shanghai, China). […] Briefly, PARP-1 or PARP-2 biotinylated substrate was incubated with compounds or solvent control at varying concentrations and an assay buffer containing the PARP-1 or PARP-2 enzyme.

PARP-2 = target: T2, PARP-2 (Homo sapiens, UniProt Q9UGN5); test: PARP-2 inhibition assay (PARP-2 Chemiluminescent Assay Kit, BPS Bioscience); assay type: biochemical; conditions: for inhibition at 0.01 µM: 10 nM compound
T2 construct: purchased BPS Bioscience 80552
T2 sequence (Q9UGN5 whole entry): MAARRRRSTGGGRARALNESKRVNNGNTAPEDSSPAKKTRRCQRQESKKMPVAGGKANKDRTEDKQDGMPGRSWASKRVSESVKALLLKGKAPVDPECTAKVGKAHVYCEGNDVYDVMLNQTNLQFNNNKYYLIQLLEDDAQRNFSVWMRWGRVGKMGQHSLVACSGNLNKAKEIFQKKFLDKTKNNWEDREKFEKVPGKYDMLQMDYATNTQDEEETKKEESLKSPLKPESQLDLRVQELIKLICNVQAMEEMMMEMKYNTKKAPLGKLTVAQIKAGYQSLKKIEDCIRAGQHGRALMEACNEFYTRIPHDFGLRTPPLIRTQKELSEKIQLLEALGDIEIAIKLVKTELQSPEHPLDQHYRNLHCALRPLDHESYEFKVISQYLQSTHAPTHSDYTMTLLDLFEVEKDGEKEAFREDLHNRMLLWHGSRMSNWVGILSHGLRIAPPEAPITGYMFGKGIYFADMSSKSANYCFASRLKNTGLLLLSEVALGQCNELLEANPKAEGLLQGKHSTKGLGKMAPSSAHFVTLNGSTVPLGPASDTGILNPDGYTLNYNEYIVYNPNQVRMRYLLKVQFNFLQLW
Method: as §2

IC50 ([1]; MDA-MB-436, 72 h, CellTiter-Glo, read-out: MDA-MB-436 IC50): 31.9 µM
IC50 ([1]; MDA-MB-436, 72 h, supplement Summary sheet, read-out: IC50): 31.9 µM
IC50 ([1]; MDA-MB-436, curve fit list, no unit in the cell, concentration in uM, read-out: IC50): 31.9 µM
IC50 ([2]; CAPAN-1, 72 h, CellTiter-Glo, read-out: CAPAN-1 IC50): 20.7 µM
IC50 ([2]; CAPAN-1, 72 h, supplement Summary sheet, read-out: IC50): 20.7 µM
IC50 ([2]; CAPAN-1, curve-fit output, concentrations in uM, read-out: IC50): 20.7 µM
inhibition at 0.01 µM (PARP-1; supplement sheet, read-out: 10 nM inhibition% PAPR-1): 42.8%
inhibition at 0.01 µM (PARP-1; read-out: PARP-1 Inhibition % (10 nM)): 42.8%
IC50 (PARP-1; read-out: PARP-1 IC50): 0.0122 µM
IC50 (PARP-1; supplement sheet, read-out: IC50 PAPR-1): 0.0122 µM
inhibition at 0.01 µM (PARP-2; supplement sheet, read-out: 10 nM inhibition% PAPR-2): 62.3%
inhibition at 0.01 µM (PARP-2; read-out: PARP-2 Inhibition % (10 nM)): 62.3%
IC50 (PARP-2; read-out: PARP-2 IC50): 0.0058 µM
IC50 (PARP-2; supplement sheet, read-out: IC50 PAPR-2): 0.00576 µM
SMILES: NC(=O)c1cccc2[nH]c(C3CCN(CCCC(=O)c4ccccc4)C3)nc12 (centres unmarked) [Compound 5cc, 2-(1-(4-Oxo-4-phenylbutyl)pyrrolidin-3-yl)-1H-benzo[d]imidazole-4-carboxamide]
inhibition at 0.00508 µM ([1]; replicate 1, read-out: Inh % 1): -5%
inhibition at 0.00508 µM ([1]; replicate 2, read-out: Inh % 2): -0.000277%
inhibition at 0.0152 µM ([1]; replicate 1, read-out: Inh % 1): -5.6%
inhibition at 0.0152 µM ([1]; replicate 2, read-out: Inh % 2): -6.4%
inhibition at 0.0457 µM ([1]; replicate 1, read-out: Inh % 1): -12.8%
inhibition at 0.0457 µM ([1]; replicate 2, read-out: Inh % 2): -9.3%
inhibition at 0.41 µM ([1]; replicate 1, read-out: Inh % 1): -7.7%
inhibition at 0.41 µM ([1]; replicate 2, read-out: Inh % 2): -9%
inhibition at 1.23 µM ([1]; replicate 1, read-out: Inh % 1): -9.6%
inhibition at 1.23 µM ([1]; replicate 2, read-out: Inh % 2): -10.8%
inhibition at 3.7 µM ([1]; replicate 1, read-out: Inh % 1): -9.3%
inhibition at 3.7 µM ([1]; replicate 2, read-out: Inh % 2): -9.7%
inhibition at 11.11 µM ([1]; replicate 1, read-out: Inh % 1): -6.6%
inhibition at 11.11 µM ([1]; replicate 2, read-out: Inh % 2): -8.1%
inhibition at 33.33 µM ([1]; replicate 1, read-out: Inh % 1): 62%
inhibition at 33.33 µM ([1]; replicate 2, read-out: Inh % 2): 38.7%
inhibition at 100 µM ([1]; replicate 1, read-out: Inh % 1): 99.6%
inhibition at 100 µM ([1]; replicate 2, read-out: Inh % 2): 99.3%
LogIC50 ([1]; MDA-MB-436, curve fit on Log (uM) concentrations): 1.504
Bottom ([1]; MDA-MB-436, curve fit parameter (Inh %)): -8.27
Top ([1]; MDA-MB-436, curve fit parameter (Inh %), '= 100.0' is a constrained value): 100
LogIC50 ([2]; CAPAN-1, curve-fit output, Log (uM)): 1.317
inhibition at 0.00508 µM ([2]; replicate 1, read-out: Inh % 1): -7.2%
inhibition at 0.00508 µM ([2]; replicate 2, read-out: Inh % 2): 1.2%
inhibition at 0.0152 µM ([2]; replicate 1, read-out: Inh % 1): 1.3%
inhibition at 0.0152 µM ([2]; replicate 2, read-out: Inh % 2): 4.1%
inhibition at 0.0457 µM ([2]; replicate 1, read-out: Inh % 1): 1.4%
inhibition at 0.0457 µM ([2]; replicate 2, read-out: Inh % 2): 9%
inhibition at […] ([2]; replicate 1, read-out: Inh % 1): 8.1%
inhibition at […] ([2]; replicate 2, read-out: Inh % 2): 7.4%
inhibition at 0.41 µM ([2]; replicate 1, read-out: Inh % 1): 22.4%
inhibition at 0.41 µM ([2]; replicate 2, read-out: Inh % 2): 6.9%
inhibition at 1.23 µM ([2]; replicate 1, read-out: Inh % 1): 18%
inhibition at 1.23 µM ([2]; replicate 2, read-out: Inh % 2): 5.8%
inhibition at 3.7 µM ([2]; replicate 1, read-out: Inh % 1): 5.7%
inhibition at 3.7 µM ([2]; replicate 2, read-out: Inh % 2): 1.6%
inhibition at 11.11 µM ([2]; replicate 1, read-out: Inh % 1): 14.5%
inhibition at 11.11 µM ([2]; replicate 2, read-out: Inh % 2): 8.2%
inhibition at 33.33 µM ([2]; replicate 1, read-out: Inh % 1): 93.8%
inhibition at 33.33 µM ([2]; replicate 2, read-out: Inh % 2): 86.5%
inhibition at 100 µM ([2]; replicate 1, read-out: Inh % 1): 100%
inhibition at 100 µM ([2]; replicate 2, read-out: Inh % 2): 99.5%

From publication PMC6572064, “Discovery of 2-(1-(3-(4-Chloroxyphenyl)-3-oxo- propyl)pyrrolidine-3-yl)-1H-benzo[d]imidazole-4-carboxamide: A Potent Poly(ADP-ribose) Polymerase (PARP) Inhibitor for Treatment of Cancer” (Molecules, 2019)
